Assay results taken from patent publication US7767819B2, “Thiazolylimidazole derivatives and their use as inhibitors of microsomal triglyceride transfer protein” (Merck Patent GmbH, priority 2004, dated 2010).
pIC50: −log10 of the molar value.

Assays:
[1] = tested on: apo B secretion in HepG2 cells; assay: Secretion of apo B in the HepG2 human cell line (sandwich ELISA); assay type: cell-based; conditions: 24 hours incubation, culture supernatant, ELISA for human apo B, read-out: IC50 (concentration that produces a 50% inhibition of apo B secretion in the HepG2 cells)
Experimental: Analysis of the Secretion of Apo B in the HepG2 Human Cell Line:
The activity of a compound according to the invention can be evaluated by measuring the inhibition of apo B secretion in HepG2 cells.
The HepG2 cells (ECACC-No. 85011430) are used as model in the study of the in vitro hepatic secretion of lipoproteins (Dixon J. and Ginsberg H., J. Lipid. Res., 1993, 34, 167-179).
The HepG2 cells are cultured in Dulbecco's modified Eagle's medium comprising 10% foetal calf serum (DMEM and FBS-Gibco) in 96-well plates under an atmosphere of 5% carbon dioxide for 24 hours (about 70% confluence).
The test compounds are dissolved at a concentration of 2 or 10 mM in dimethyl sulfoxide (DMSO). Serial dilutions (1:3.16) are made in DMSO and are:added (1:200—Robot Multimek Beckman) to the growth medium (200 μl) and then finally incubated for 24 hours in the various wells containing the HepG2 cells.
The 24-hour culture supernatant diluted to 1:5 (phosphate-buffered saline: PBS comprising 1% bovine serum albumin) is tested according to a sandwich-ELISA method specific for human apo B.
The results are expressed in terms of IC50, i.e. the concentration that produces a 50% inhibition of apo B secretion in the HepG2 cells.

[2] = biological target: T1, microsomal triglyceride transfer protein (MTP) (Mesocricetus auratus, UniProt P55158); assay: Inhibition of MTP activity (transfer of [3H]-triolein from donor liposomes to biotinylated LDL, SPA); assay type: biochemical; conditions: MTP from golden hamster liver microsomes; incubation 18-24 hours at 37° C.; read-out: IC50 (concentration that allows a 50% inhibition of MTP)
T1 construct: The supernatant comprising the soluble MTP is dialysed against Tris/HCl 150 mM; from tissue; host or cells: golden hamster liver microsomes, deoxycholate-solubilised supernatant
T1 sequence (P55158 19-895): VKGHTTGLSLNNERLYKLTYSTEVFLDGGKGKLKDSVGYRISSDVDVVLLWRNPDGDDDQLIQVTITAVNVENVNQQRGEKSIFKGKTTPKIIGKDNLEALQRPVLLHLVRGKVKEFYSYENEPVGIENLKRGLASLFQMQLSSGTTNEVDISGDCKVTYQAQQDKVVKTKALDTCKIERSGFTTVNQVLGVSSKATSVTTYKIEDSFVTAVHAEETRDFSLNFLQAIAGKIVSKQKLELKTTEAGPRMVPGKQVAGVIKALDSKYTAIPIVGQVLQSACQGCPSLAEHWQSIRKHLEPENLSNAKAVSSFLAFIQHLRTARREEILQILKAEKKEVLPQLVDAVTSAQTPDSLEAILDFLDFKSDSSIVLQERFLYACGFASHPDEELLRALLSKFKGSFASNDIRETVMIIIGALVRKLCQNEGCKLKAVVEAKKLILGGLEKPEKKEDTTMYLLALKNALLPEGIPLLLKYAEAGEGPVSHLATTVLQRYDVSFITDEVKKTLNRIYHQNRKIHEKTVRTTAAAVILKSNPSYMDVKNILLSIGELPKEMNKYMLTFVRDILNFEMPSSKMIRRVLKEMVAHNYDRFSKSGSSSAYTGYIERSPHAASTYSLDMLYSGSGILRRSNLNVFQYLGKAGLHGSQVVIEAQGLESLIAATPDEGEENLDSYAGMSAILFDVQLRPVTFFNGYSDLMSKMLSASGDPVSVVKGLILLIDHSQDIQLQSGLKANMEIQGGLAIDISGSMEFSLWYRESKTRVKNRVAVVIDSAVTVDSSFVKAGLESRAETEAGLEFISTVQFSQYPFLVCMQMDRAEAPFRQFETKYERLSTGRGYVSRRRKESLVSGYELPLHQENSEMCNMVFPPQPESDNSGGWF
Experimental: Analysis of the Inhibition of MTP Activity
The inhibition of the activity of microsomal triglyceride transfer protein (MTP) was tested by using the following operating protocol.
The inhibition of MTP activity with a compound can be quantified by observing the inhibition of the transfer of a labelled triglyceride, from a donor particle to an acceptor particle, in the presence of MTP. The procedure for the preparation of MTP is based on the method by Wetterau and Zilversmit (Biochem. Biophys. Acta (1986) 875, 610). A few grams of golden hamster liver are taken and then rinsed several times in a 250 mM sucrose solution at 0° C. All the following steps proceed at +4° C. A homogenate at a concentration of 50% in 250 mM sucrose is prepared using a Teflon mill and then centrifuged for 10 minutes at 10 000×g at +4° C. The supernatant is then centrifuged at 105 000×g for 75 minutes at +4° C. The supernatant is discarded and the microsomal pellet is taken up in 3 ml (per g of starting liver) of Tris/HCl 150 mM pH 8.0. 1 ml aliquot fractions are stored at −80° C. until the time of use.
After thawing a fraction of microsomes (1 ml), 12 ml of refrigerated Tris/HCl 50 mM, KCl 50 mM, MgCl2 5 mM pH 7.4 buffers and 1.2 ml of deoxycholate (0.54% in water) are added. After incubation for 30 minutes at +4° C. with gentle agitation, the suspension is centrifuged at 105 000×g for 75 minutes. The supernatant comprising the soluble MTP is dialysed against Tris/HCl 150 mM, NaCl 40 mM, EDTA 1 mM, 0.02% sodium azide pH 7.4 buffer (5 times one litre over 2-3 days). The MTP is stored at +4° C., is stable for at least 30 days and is used in unmodified form in the test.
The donor particles (liposomes) are prepared from 208 μl of L-phosphatidylcholine at a concentration of 10 mg/ml in chloroform, and 480 μl of [3H]-triolein at a concentration of 0.5 mCi/ml in toluene. After stirring, the solution is evaporated under nitrogen, taken up in 6 ml of Tris/HCl 50 mM, KCl 50 mM, MgCl2 5 mM pH 7.4 buffer and incubated in an ultrasound bath for 30 minutes at room temperature. The liposomes are stored at +4° C. and sonicated again for 10 minutes before each use.
The acceptor particles are biotinylated low density lipoproteins (LDL-biot). These particles are supplied by the company Amersham.
The reaction mixture is prepared in untreated ½ well white plates (Corning Costar) by addition, in the following order, of: 5 μl of HEPES 50 mM, NaCl-150 mM, BSA 0.1% (w/v), 0.05% sodium azide (w/v), pH 7.4 buffer; 5 μl of liposomes; 5 μl of LDL-biot; 5 μl of test products in DMSO; 5 μl of MTP. After incubation for 18-24 hours at 37° C., the reaction is stopped by adding 100 μl of Amersham SPA (scintillation proximity assay) beads coupled to streptavidin, and the radioactivity is counted using a Top Count (Packard) machine at least one hour later. The inhibition of the transfer of the triglycerides with a compound is reflected by a reduction in the transferred radioactivity.
The results are expressed in terms of the IC50, i.e. the concentration that allows a 50% inhibition of MTP.

Compound	pIC50 [1]	pIC50 [2]
CCn1c(-c2csc(C3CCN(C(=O)c4ccccc4-c4ccc(C(F)(F)F)cc4)CC3)n2)nc(-c2ccccn2)c1C [Example 5, {4-[4-(1-ethyl-5-methyl-4-(pyrid-2-yl)-1H-imidazol-2-yl)thiazol-2-yl]-piperid-1-yl}(4′-trifluoromethylbiphenyl-2-yl)methanone]	5.58	5.59
CCn1c(-c2csc(C3CCN(C(=O)c4cccc(C)c4-c4ccc(OC(F)(F)F)cc4)CC3)n2)nc(-c2ccccn2)c1C [Example 6, {4-[4-(1-ethyl-5-methyl-4-(pyrid-2-yl)-1H-imidazol-2-yl)thiazol-2-yl]-piperid-1-yl}(6-methyl-4′-trifluoromethoxybiphenyl-2-yl)methanone]	5.64	5.74
CCn1c(-c2csc(C3CCCN(C(=O)c4ccccc4-c4ccc(C(F)(F)F)cc4)C3)n2)nc(-c2ccccc2)c1C (stereo not shown) [Example 7, {3-[4-(1-ethyl-5-methyl-4-phenyl-1H-imidazol-2-yl)thiazol-2-yl]piperid-1-yl}(4′-trifluoromethylbiphenyl-2-yl)methanone]	5.68	–

Stronger by pIC50 [1], values ahead:

pIC50 [1]	pIC50 [2]	Compound
5.80	6.09	CCn1c(-c2csc(C3CCN(C(=O)c4ccccc4-c4ccc(C(F)(F)F)cc4)CC3)n2)nc(-c2cccnc2)c1C [Example 4, {4-[4-(1-ethyl-5-methyl-4-(pyrid-3-yl)-1H-imidazol-2-yl)thiazol-2-yl]-piperid-1-yl}(4′-trifluoromethylbiphenyl-2-yl)methanone]
6.21	6.52	Cc1c(-c2ccccc2)nc(-c2csc(C3CCN(C(=O)c4ccccc4-c4ccc(C(F)(F)F)cc4)CC3)n2)n1C [Example 2, {4-[4-(1,5-dimethyl-4-phenyl-1H-imidazol-2-yl)thiazol-2-yl]piperid-1-yl}(4′-trifluoromethylbiphenyl-2-yl)methanone]
6.41	6.57	CCn1c(-c2csc(C3CCN(C(=O)c4ccccc4-c4ccc(C(F)(F)F)cc4)CC3)n2)nc(-c2ccccc2)c1C [Example 3, {4-[4-(1-ethyl-5-methyl-4-phenyl-1H-imidazol-2-yl)thiazol-2-yl]piperid-1-yl}(4′-trifluoromethylbiphenyl-2-yl)methanone]
6.43	6.49	CCn1c(-c2csc(C3CCN(C(=O)c4cccc(C)c4-c4ccc(OC(F)(F)F)cc4)CC3)n2)nc(-c2ccccc2)c1C [Example 1, {4-[4-(1-Ethyl-5-methyl-4-phenyl-1H-imidazol-2-yl)thiazol-2-yl]piperid-1-yl}(6-methyl-4′-trifluoromethoxybiphenyl-2-yl)methanone]
